Measured values taken from patent US10377741B2, “Substituted heteroaryl aldehyde compounds and methods for their use in increasing tissue oxygenation” (Global Blood Therapeutics, Inc., priority 2011, dated 2019).

The molecules below were run against T1, purified Hemoglobin S (HbS) (Homo sapiens, UniProt P68871+P69905, E7V) (assay: Modulation of hemoglobin oxygen affinity: oxygen equilibrium curves (HEMOX) in purified HbS). Details: compound at 30 μM; 25 μM purified HbS, 45 min at 37° C.
T1 construct: HbS was purified by a modified procedure; from tissue; host or cells: blood of homozygous sickle cell patients (CHORI); for the polymerization assay purified by the CRO VIRUSYS
Type: biochemical, human (homozygous sickle cell patients)
Experimental: Oxygen equilibrium curves (OEC) in purified Hemoglobin S (HbS) were measured by the change in p50, the partial pressure of oxygen at which the heme binding sites in the HbS sample are 50% saturated with oxygen. HbS was purified by a modified procedure (Antonini and Brunori, 1971; Heomoglobin and Myoglobin in their Reactions with Ligands; North Holland Publishing Company; Amsterdam, London) from blood obtained from homozygous sickle cell patients though the Hemoglobinopathy Center at Children's Hospital Oakland Research Institute (CHORI) with Institutional Review Board approval. Oxygen equilibrium curves were carried out with a HEMOX analyzer, (TCS Scientific, New Hope, Pa.). Five hundred μL of 250 μM purified HbS were diluted into 4.5 mL of HEMOX buffer (30 mM TES, 130 mM NaCl, 5 mM KCl, pH=7.4) resulting in a final hemoglobin concentration of 25 μM. The compounds were added at the final desired concentrations. The mixture was incubated for 45 min at 37° C. and then transferred to the Hemox sample chamber. The samples were saturated with oxygen by flushing with compressed air for 10 minutes. The samples were then flushed with pure nitrogen and the absorbance of deoxy-Hb was recorded as a function of the solution pO2. The oxygen equilibrium data was then fit to the Hill Model to obtain values for p50. The deoxygenation curves for both HbS alone (control) and HbS in the presence of compound were collected with the TCS software. The p50 for purified Hbs was typically 13.8±1.6. Delta p50 values were obtained from the p50 value for control minus the p50 value for HbS treated with compound divided by the p50 value for the control.
The compounds of Table 1 that were where tested in the assay above were all found to have positive delta p50 values. Delta p50% is calculated from [[p50(HbS) −p50(HbS treated with compound)]/p50(HbS)]×100. Table 2 below lists the delta p50% values where + indicates a delta p50% of between 0 and 29, ++ indicates a delta p50% of between 30 and 50, and +++ indicates a delta p50% of 50 or greater. Unless noted otherwise, the compounds in Table 2 were tested at 30 μM.

| delta p50% | Compound |
| --- | --- |
| + (a delta p50% of between 0 and 29) | CNC(=O)c1cccn2cc(COc3cnc(OC)cc3C3OCCO3)nc12 [Compound 69, 2-((4-(1,3-dioxolan-2-yl)-6-methoxypyridin-3-yloxy)methyl)-N-methylimidazo[1,2-a]pyridine-8-carboxamide] |
| + (a delta p50% of between 0 and 29) | CCOC(=O)C1CSC(c2cc(OC)ncc2OCc2cccn3ccnc23)N1 (centres unmarked) [Compound 126, ethyl 2-(5-(imidazo[1,2-a]pyridin-8-ylmethoxy)-2-methoxypyridin-4-yl)thiazolidine-4-carboxylate] |
| + (a delta p50% of between 0 and 29) | COc1cc(C=O)c(NC(=O)c2cccn3ccnc23)cn1 [Compound 112, N-(4-formyl-6-methoxypyridin-3-yl)imidazo[1,2-a]pyridine-8-carboxamide] |
| + (a delta p50% of between 0 and 29) | COc1cc(C=O)c(OCc2cncc(-c3ccn[nH]3)c2)cn1 [Compound 70, 5-((5-(1H-pyrazol-5-yl)pyridin-3-yl)methoxy)-2-methoxyisonicotinaldehyde] |
| + (a delta p50% of between 0 and 29) | COc1cc(C=O)c(OCc2cncc(-c3cnn(C)c3)c2)cn1 [Compound 77, 2-methoxy-5-((5-(1-methyl-1H-pyrazol-4-yl)pyridin-3-yl)methoxy)isonicotinaldehyde] |
| + (a delta p50% of between 0 and 29) | COc1cc(C=O)c(OCc2cccnc2C)cn1 [Compound 38, 2-methoxy-5-((2-methylpyridin-3-yl)methoxy)isonicotinaldehyde] |
| + (a delta p50% of between 0 and 29) | COc1cc(C=O)c(OCc2ccc(C#N)nc2)cn1 [Compound 62, 5-((4-formyl-6-methoxypyridin-3-yloxy)methyl)picolinonitrile] |
| + (a delta p50% of between 0 and 29) | Cc1ccc(OCc2cccc3ocnc23)c(C=O)n1 [Compound 99, 3-(benzo[d]oxazol-4-ylmethoxy)-6-methylpicolinaldehyde] |
| + (a delta p50% of between 0 and 29) | Cc1ccc(OCc2ccc3ccncc3c2)c(C=O)n1 [Compound 83, 3-(isoquinolin-7-ylmethoxy)-6-methylpicolinaldehyde] |
| + (a delta p50% of between 0 and 29) | COc1cc(C=O)c(OCc2cc3ccccc3nc2-c2ccn[nH]2)cn1 [Compound 117] |
| + (a delta p50% of between 0 and 29) | Cc1ccc(OCc2ccc3ccccc3n2)c(C=O)n1 [Compound 94, 6-methyl-3-(quinolin-2-ylmethoxy)picolinaldehyde] |
| + (a delta p50% of between 0 and 29) | COC(=O)c1cc(COc2cnc(OC)cc2C=O)c2nc(Br)cn2c1 [Compound 138, methyl 2-bromo-8-(((4-formyl-6-methoxypyridin-3-yl)oxy)methyl)imidazo[1,2-a]pyridine-6-carboxylate] |
| + (a delta p50% of between 0 and 29) | COc1cc(C=O)c(OCc2c(-c3cc[nH]n3)ccn3cncc23)cn1 [Compound 123, 5-((7-(1H-pyrazol-3-yl)imidazo[1,5-a]pyridin-8-yl)methoxy)-2-methoxyisonicotinaldehyde] |
| + (a delta p50% of between 0 and 29) | COc1cc(C=O)c(OCc2cc(-c3nn[nH]n3)cn3ccnc23)cn1 [Compound 125, 5-((6-(2H-tetrazol-5-yl)imidazo[1,2-a]pyridin-8-yl)methoxy)-2-methoxyisonicotinaldehyde] |
| + (a delta p50% of between 0 and 29) | Cc1ccc(OCc2cccn3cncc23)c(C=O)n1 [Compound 139, 3-(imidazo[1,5-a]pyridin-8-ylmethoxy)-6-methylpicolinaldehyde] |
| + (a delta p50% of between 0 and 29) | COc1cc(C=O)c(OCc2cc3ccccc3nc2Cl)cn1 [Compound 116, 5-((2-chloroquinolin-3-yl)methoxy)-2-methoxyisonicotinaldehyde] |
| + (a delta p50% of between 0 and 29) | COc1cc(C=O)c(OCc2ccc3ccncc3c2)cn1 [Compound 82, 5-(isoquinolin-7-ylmethoxy)-2-methoxyisonicotinaldehyde] |
| + (a delta p50% of between 0 and 29) | COc1cc(C=O)c(OCc2ccnc3c2c(C)nn3C)cn1 [Compound 114, 5-((1,3-dimethyl-1H-pyrazolo[3,4-b]pyridin-4-yl)methoxy)-2-methoxyisonicotinaldehyde] |
| + (a delta p50% of between 0 and 29) | COc1cc(C=O)c(OCc2cnc3ccccc3n2)cn1 [Compound 118, 2-methoxy-5-(quinoxalin-2-ylmethoxy)isonicotinaldehyde] |
| + (a delta p50% of between 0 and 29) | Cc1ccc(OCc2cnc3ccccc3c2)c(C=O)n1 [Compound 81, 6-methyl-3-(quinolin-3-ylmethoxy)picolinaldehyde] |
| + (a delta p50% of between 0 and 29) | Cc1ccc(OCc2ccc3c(c2)c(Cl)nn3C)c(C=O)n1 [Compound 109, 3-((3-chloro-1-methyl-1H-indazol-5-yl)methoxy)-6-methylpicolinaldehyde] |
| + (a delta p50% of between 0 and 29) | COc1cc(C=O)c(OCc2ccc3[nH]ncc3c2)cn1 [Compound 107, 5-((1H-indazol-5-yl)methoxy)-2-methoxyisonicotinaldehyde] |

Same assay, conditions: compound at 100 μM; 25 μM purified HbS, 45 min at 37° C.

| delta p50% | Compound |
| --- | --- |
| + (a delta p50% of between 0 and 29) | COc1cc(C=O)c(OCc2cn3cc(Br)ccc3n2)cn1 [Compound 56, 5-((6-bromoimidazo[1,2-a]pyridin-2-yl)methoxy)-2-methoxyisonicotinaldehyde] |
| ++ (a delta p50% of between 30 and 50) | COc1cc(C=O)c(OCc2ccncc2Br)cn1 [Compound 48, 5-((3-bromopyridin-4-yl)methoxy)-2-methoxyisonicotinaldehyde] |
| + (a delta p50% of between 0 and 29) | COc1cc(C=O)c(OCc2cn3cc(C(F)(F)F)ccc3n2)cn1 [Compound 52, 2-methoxy-5-((6-(trifluoromethyl)imidazo[1,2-a]pyridin-2-yl)methoxy)isonicotinaldehyde] |
| + (a delta p50% of between 0 and 29) | COc1cc(C=O)c(OCc2ccc(C(F)(F)F)nc2)cn1 [Compound 40, 2-methoxy-5-((6-(trifluoromethyl)pyridin-3-yl)methoxy)isonicotinaldehyde] |
